From paper PMC9892719, “High-throughput screening method for discovering CatSper inhibitors using membrane depolarization caused by external calcium chelation and fluorescent cell barcoding” (Frontiers in Cell and Developmental Biology, 2023)

Molecular target: T1, CatSper (Mus musculus, UniProt A2ARP9+Q80W99+Q8BVN3+Q91ZR5)
T1 construct: gene Catsper1; native channel complex in live cauda epididymal sperm; pore of four homologous subunits CatSper 1-4 plus auxiliary subunits; with Cation channel sperm-associated auxiliary subunit beta; Cation channel sperm-associated auxiliary subunit gamma 2; Cation channel sperm-associated auxiliary subunit delta; Cation channel sperm-associated auxiliary subunit epsilon; Cation channel sperm-associated auxiliary subunit zeta; Cation channel sperm-associated targeting subunit tau; Cation channel sperm-associated auxiliary subunit TMEM262; Solute carrier organic anion transporter family member 6C1; Cation channel sperm-associated auxiliary subunit TMEM249
Assay: EGTA-induced Na+ depolarization of live sperm, DiSC3([…]) fluorescence, flow cytometry and spectrofluorometry
Type: cell-based
Details: non-capacitated sperm, NC TYH medium pH 7.4, 3.5 mM EGTA (free Ca2+ 138 nM)

In the case of `O=C(c1cccs1)c1no[n+]([O-])c1C(=O)c1cccs1` [HC-056456], the “block of EGTA-induced depolarization at 10 μM” value is reported as “HC-056456 inhibits CatSper in a concentration-dependent manner”.
